Laboratory results published in patent publication EP4775577A1, “RAS INHIBITOR” (Tyligand Bioscience (Shanghai) Limited, priority 2023, dated 2025).
Where two headings read alike, the source gives them in different places.

Tests used:
[1] = tested on: KRAS G12D mutant AGS cells; test: Proliferation inhibition of AGS cells, CellTiter-Glo assay; assay type: cell-based, human; details: Homo sapiens, AGS, 72 h
Method in brief: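 AGS cells at 1500 cells/well in F12K + 10% FBS were exposed for 3 days at 37°C to nine 3-fold dilutions from 10 µM top concentration, in duplicate. Viability read by CellTiter-Glo luminescence; IC50 (nM) from dose-response-inhibition fitting.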

Pharmacokinetics in mice = details: mouse, po
[2] = tested on: KRAS G12V mutant NCI-H727 cells; test: Proliferation inhibition of NCI-H727 cells, 3D CellTiter-Glo assay (Method B); assay type: cell-based, human; details: Homo sapiens, NCI-H727, 120 h, Method B; 3D culture with 0.65% methylcellulose, 5 days, CTG; read-out: NCI-H727 IC50/nM
Method in brief: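 Cells grown in 3D medium (RPMI-1640, 10% FBS, 0.65% methylcellulose) overnight, then treated 5 days at 37 °C, 5% CO2 with 9 threefold dilutions from 10 µM top working concentration, duplicate wells. CellTiter-Glo luminescence read; IC50 (nM) fitted by dose-response-inhibition equation.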

[3] = tested on: KRAS G12S mutant A549 cells; test: Proliferation inhibition of A549 cells, 3D CellTiter-Glo assay; assay type: cell-based; details: Homo sapiens, A549, 120 h, read-out: A549 IC50/nM
Method: A549 cells (Nanjing Kebai Biotechnology Co., Ltd., catalog number CBP60084, adherent, culture medium (F12K Nutrient Mixture+10%FBS (GIBCO, Cat#10091-148) at 37°C, 5%CO2, and 95% humidity.
3D Cell Viability Assay: Cells in the logarithmic growth phase were harvested and counted using a platelet counter. Cell viability was assessed using the trypan blue exclusion method to ensure a viability of over 90%. The 3D cell culture medium was prepared by adding 1% MC (methylcellulose, Sigma, Cat#M0512) F-12K medium and 10% FBS. The cell concentration was adjusted to approximately 7407 cells/mL using the 3D medium, and the methylcellulose (MC) content was set to 0.65%. Then, 135 µL of cell suspension was added to each 96-well clear, flat-bottomed, black-walled plate (Greiner, Cat#655096). The cells in the 96-well plates were cultured overnight at 37°C with 5% CO2.
Drug preparation for IC50 assay: A 10-fold drug solution was prepared using culture medium. […] of the drug solution was added to each well of a 96-well plate seeded with cells to achieve a working concentration of up to 10 µM, with a 3× dilution, and 9 concentrations. 2 replicate wells for each drug concentration were set. The cells in the drug-treated 96-well plates were cultured at 37°C and 5% CO^2 for additional5 days, then CTG assay (CellTiter-Glo® Luminescent Cell Viability Assay (Promega, Cat#G7573)) were performed.
The cell plate was equilibrated to room temperature for 30 minutes and the CTG reagent was thawed. 75 µL of CTG solution was added to each well for detection, and the plate was shaken on an orbital shaker for 5 minutes to lyse the cells. The cell plate was placed at room temperature for 25 minutes to stabilize the cryo-luminescence signal and the cryo-luminescence value was read (EnVision® multi-plate reader, PerkinElmer#2105).
Data was analyzed using GraphPad Prism software. The dose-response-inhibition equation was used to fit the data to obtain the dose-response curve, and the IC50 value (nM) was calculated accordingly. [formula]

[4] = 3 days, CTG, read-out: AGS IC50/nM

SMILES | IC50 [1, 4] | AUC(0-t) at 8 h (Pharmacokinetics in mice; plasma, 20 mg/kg) | IC50 [2] | AUC(0-t) at 8 h (Pharmacokinetics in mice; in vivo, 20 mg/kg) | AUC(0-t) at 8 h (Pharmacokinetics in mice; plasma, 10 mg/kg) | IC50 [3] | IC50 ([1]; read-out: AGS IC50/nM, 3 days, CTG)
CCN1CC/C(=C\F)[C@](C)(COc2nc(N3Cc4c(COC)c(C(=O)N(C)C)nn4CC[C@@H]3C)c3cc(Cl)c(-c4c(F)ccc5sc(N)c(C#N)c45)c(C(F)F)c3n2)C1 (atropisomer, axis not shown) [Example 241A] | 8.3 nM | 1660 ng·h/mL | 6.5 nM | – | – | – | –
CCOc1c(C(=O)N(C)C)nn2c1CN(c1nc(OC[C@]3(C)CN(CC)CC/C3=C\F)nc3c(F)c(-c4c(F)ccc5sc(N)c(C#N)c45)c(Cl)cc13)[C@@H](C)CC2 (single isomer, unassigned) [Example 236A] | 2.7 nM | 2820 ng·h/mL | 1.5 nM | – | – | – | –
CCN1CC/C(=C\F)[C@](C)(COc2nc(N3CCCn4nc(C(=O)N(C)C)c(Cl)c4C3)c3cc(Cl)c(-c4c(F)ccc5sc(N)c(C#N)c45)c(F)c3n2)C1 (single isomer, unassigned) [Example 256A] | 1.5 nM | 1380 ng·h/mL | < 1.5 nM | – | – | – | –
CCN1CC/C(=C\F)[C@](C)(COc2nc(N3Cc4c(COC)c(C(=O)N(C)C)nn4CC[C@@H]3C)c3cc(Cl)c(-c4c(F)ccc5sc(N)c(C#N)c45)c(C)c3n2)C1 (single isomer, unassigned) [Example 229A] | 1.7 nM | – | < 1.5 nM | 4490 ng·h/mL | – | – | –
CCN1CC/C(=C\F)[C@](C)(COc2nc(N3Cc4c(COC)c(C(=O)N(C)C)nn4CC[C@@H]3C)c3cc(Cl)c(-c4c(F)cc(F)c5sc(N)c(C#N)c45)c(F)c3n2)C1 (single isomer, unassigned) [Example 237A] | < 1.5 nM | 3910 ng·h/mL | < 1.5 nM | – | – | – | –
[2H]C([2H])([2H])N1CC/C(=C\F)[C@](C)(COc2nc(N3Cc4c(COC)c(C(=O)N(C)C)nn4CC[C@@H]3C)c3cc(CC)c(-c4c(F)ccc5sc(N)c(C#N)c45)c(F)c3n2)C1 (single isomer, unassigned) [Example 258A] | 1.9 nM | 1320 ng·h/mL | < 1.5 nM | – | – | – | –
CCN1CC/C(=C\F)[C@](C)(COc2nc(N3Cc4c(O)c(C(=O)N(C)C)nn4CC[C@@H]3C)c3cc(Cl)c(-c4c(F)ccc5sc(N)c(C#N)c45)c(F)c3n2)C1 (single isomer, unassigned) [Example 233A] | < 1.5 nM | – | < 1.5 nM | 822 ng·h/mL | – | – | –
CCN1CC/C(=C\F)[C@](C)(COc2nc(N3Cc4cc(C(C)=O)nn4CC[C@@H]3C)c3cc(Cl)c(-c4c(F)ccc5sc(N)c(C#N)c45)c(F)c3n2)C1 (single isomer, unassigned) [Example 268A] | 3.5 nM | – | 4 nM | – | 907 ng·h/mL | – | –
C[C@H]1CCn2nc(C(=O)N(C)C)cc2CN1c1nc(OC[C@]2(C)CN(C)CC/C2=C\F)nc2c(F)c(-c3cccc4sc(N)c(C#N)c34)c(C(F)(F)F)cc12 (atropisomer, axis not shown) [Example 123A] | < 1.5 nM | – | < 1.5 nM | – | – | 33.8 nM | –
[2H]C([2H])([2H])N1CC/C(=C\F)[C@](C)(COc2nc(N3Cc4cc(C(=O)N(C)C)nn4CC[C@@H]3C)c3cc(CC)c(-c4c(F)ccc5sc(N)c(C#N)c45)c(F)c3n2)C1 (single isomer, unassigned) [Example 173A] | < 1.5 nM | – | < 1.5 nM | – | – | 43.5 nM | –
CCc1cc2c(N3CCCn4nc(C(=O)N(C)C)c(Cl)c4C3)nc(OC[C@]3(C)CN(C)CC/C3=C\F)nc2c(F)c1-c1c(F)ccc2sc(N)c(C#N)c12 (single isomer, unassigned) [Example 163A] | – | – | 3.3 nM | – | – | 86.9 nM | < 1.52 nM
CCc1cc2c(N3Cc4cc(C(=O)N(C)C)nn4CC[C@@H]3C)nc(OC[C@]3(C)CN(C)CC/C3=C\F)nc2c(F)c1-c1c(F)ccc2sc(N)c(C#N)c12 (single isomer, unassigned) [Example 164A] | < 1.5 nM | – | < 1.5 nM | – | – | 48 nM | –
